The results in this text go back to US6271342A, “Sugar-modified cytostatics” (Bayer Aktiengesellschaft, priority 1995, dated 2001).

The test system of this test is SW 480. The test can be described thus: Growth inhibition test (MTT) for cytotoxic properties. Type of test: cell-based, human. The note with it: Table 1a, glycoconjugates of batracyline. On the procedure: Growth Inhibition Test for Determination of the Cytotoxic Properties of Glycoconjugates of Batracyline and of Quinolone-a
The human colon cell lines SW 480 and HT 29 (ATCC no. CCL 228 and HBT-38) and the mouse melanoma cell line B 16 F 10 were cultured in Roux dishes in RPMI 1640 medium with addition of 10% FCS. The cultures were then trypsinized and taken up in RPMI plus 10% FCS to a cell count of 50,000 cells/ml. 100 μl of cell suspension/well were introduced into a 96 microwell plate and incubated for 1 day at 37° C. in a CO2 incubating cabinet. A further 100 μl of RPMI medium and 1 μl of dimethyl sulphoxide with the test substances were then added. The growth was checked after day 3 and day 6. 40 μl of MTT solution (3-(4,5-dimethylthiazol-2-yl)-2,5-diphenyltetrazoline bromide) with an initial concentration of 5 mg/ml of H2 O were added to each microwave. The plate was incubated for 5 hours in a CO2 incubating cabinet at 37° C. The medium was then sucked off and 100 μl of i-propanol/well were added. After shaking for 30 minutes with 100 μl of H2 O, the extinction was measured at 540 nm with a Titertek Multiskan MCC/340 (Flow).
The cytotoxic action of the glycoconjugates of batracyline described is shown in Table 1a as the IC50 value in each case for the SW 480 and HT 29 cell lines.

Counter-ions that a name gives are not always drawn.

What is called IC50 is the concentration that inhibits the measured activity by half. A lower IC50 goes with higher potency. For `C[C@@H]1O[C@H](Oc2ccc(NC(=S)NCCCC[C@H](N)C(=O)N[C@H](C)C(=O)Nc3ccc4c(c3)CN3C(=O)c5ccccc5C3=N4)cc2)[C@@H](O)C[C@@H]1O` [Example 3.7, N-{N^ε -[O-(3-Deoxy-β-L-fucosyl)-4-hydroxy-phenylamino-thiocarbonyl]-lysyl-D -alanyl}-batracyline, trifluoroacetate], inhibition was half-maximal at 55 µM (IC50).

For the molecule `CO[C@H]1[C@@H](O)[C@H](O)[C@@H](Oc2ccc(NC(=S)NCCCC[C@H](N)C(=O)N[C@H](C)C(=O)Nc3ccc4c(c3)Cn3c-4nc4ccccc4c3=O)cc2)O[C@H]1C` [Example 3.11, N-{N^ε -[O-(4-O-Methyl-β-L-fucosyl)-4-hydroxy-phenylamino-thiocarbonyl]-lysyl-D-alanyl}-batracyline, acetate], the IC50 was 85 µM.

In turn, `CNC(=O)COC1C(O)C(CO)OC(Oc2ccc(NC(=S)NCCCCC(N)C(=O)NC(C)C(=O)Nc3ccc4nc5n(c(=O)c4c3)Cc3ccccc3-5)cc2)C1O` [Example 3.20, N-{N^ε -[O-(3-O-(N-Methyl-carbamoylmethyl)-β-D-galactopyranosyl)-4-hydroxy-phenylamino-thiocarbonyl]-lysyl-D-alanyl}-batracyline, trifluoroacetate] registered an IC50 of 100 µM.

The molecule `CC(=O)OCC1OC(Oc2ccc(NC(=S)NCCCCC(N)C(=O)NC(C)C(=O)Nc3ccc4nc5n(c(=O)c4c3)Cc3ccccc3-5)cc2)C(O)C(O)C1O` [Example 3.24, N-{N^ε -[O-(6-O-Acetyl-β-D-galactopyranosyl)-4-hydroxy-phenylamino-thiocarbonyl]-lysyl-D-alanyl}-batracyline, trifluoroacetate] gave a half-maximal inhibitory concentration (IC50) of 95 µM.

As to `COC1C(Oc2ccc(NC(=S)NCCCCC(N)C(=O)NC(C)C(=O)Nc3ccc4nc5n(c(=O)c4c3)Cc3ccccc3-5)cc2)OC(CO)C(O)C1OC` [Example 3.27, N-{N^ε -[O-(2,3-Di-O-methyl-α-D-mannopyranosyl)-4-hydroxy-phenylamino-thiocarbonyl]-lysyl-D-alanyl}-batracyline, trifluoroacetate], the IC50 is 110 µM.

For the molecule `CC(NC(=O)C(CCCCNC(=S)Nc1ccc(OC2OC(CO)C(O)C(OCC(N)=O)C2O)cc1)NC(=S)Nc1ccc(OC2OC(CO)C(O)C(OCC(N)=O)C2O)cc1)C(=O)Nc1ccc2nc3n(c(=O)c2c1)Cc1ccccc1-3` [Example 6.82, N-{N^α,N^ε -Bis-[O-(3-O-carbamoylmethyl-β-D-galactopyranosyl)-4-hydroxy-phenylamino-thiocarbonyl]-lysyl-D-alanyl}-batracyline], half-maximal inhibition (IC50) was put at 125 µM.

Molecule `CO[C@H]1[C@H](O)[C@@H](Oc2ccc(Nc3nc(NCCO)nc(NCCCC[C@H](N)C(=O)N[C@H](C)C(=O)Nc4ccc5c(=O)n6c(nc5c4)-c4ccccc4C6)n3)cc2)O[C@@H](C)[C@H]1O` [Example 8.10, N-{N^ε -[4-Hydroxyethylamino-2-[O-(3-O-methyl-β-L-fucosyl)-4-hydroxy-phenylamino]-triazin-6-yl]-lysyl-D-alanyl}-batracyline, trifluoroacetate] came in with an IC50 of 70 µM.

`CO[C@H]1[C@@H](O)[C@H](O)[C@@H](Oc2ccc(Nc3nc(NCCO)nc(NCCCC[C@H](N)C(=O)N[C@@H](C)C(=O)Nc4ccc5c(c4)CN4C(=O)c6ccccc6C4=N5)n3)cc2)O[C@H]1C` [Example 8.12, N-{N^ε -[4-Hydroxyethylamino-2-[O-(4-O-methyl-β-L-fucosyl)-4-hydroxy-phenylamino]-triazin-6-yl]-lysyl-alanyl}-batracyline, trifluoroacetate]: it took 30 µM to reach half-maximal inhibition (IC50). Against the preceding molecule, the IC50 is about 2.3-fold lower.

“N-{N-[O-(β-L-Fucosyl)-4-hydroxy-phenylamino-thiocarbonyl]-glutamyl-D-a lanyl}-batracyline [Example 7.5]” returned an IC50 of 80 µM. This IC50 lies about 2.7-fold higher than the previous one.

Turning to “N-{N^α -[4-Hydroxyphenylamino-thiocarbonyl]-N^ε -[O-(4-O-methyl-β-L-fucosyl)-4-hydroxyphenylamino-thiocarbonyl]-lysyl -D-alanyl}-batracyline [Example 5.6]”, the IC50 is over 250 µM.

“N-{N^α,N^ε -Bis-[O-(3,4-O-dideoxy-β-D-galactopyranosyl)-4-hydroxy-phenylamino-th iocarbonyl]-lysyl-D-alanyl}-batracyline [Example 6.83]” yielded an IC50 of 90 µM.

Turning to “N-{N^α,N^ε -Bis-[O-(3,4-di-O-methyl-β-D-galactopyranosyl)-4-hydroxy-phenylamino- thiocarbonyl]-lysyl-alanyl}-batracyline [Example 6.85]”, the IC50 was 22 µM.

“N-{N^α,N^ε -Bis-[O-(3-O-carbamoylmethyl-β-D-galactopyranosyl)-4-hydroxy-phenylam ino-thiocarbonyl]-lysyl-seryl}-batracyline [Example 6.35]”: inhibition was half-maximal at 20 µM (IC50). This IC50 and that of the molecule before are within 1.5-fold of each other.

In turn, “N-{N^α,N^ε -Bis-[O-(3-O-carboxymethyl-β-D-galactopyranosyl)-4-hydroxy-phenylamin o-thiocarbonyl]-lysyl-seryl}-batracyline, di-sodium salt [Example 6.34]” registered an IC50 of 50 µM.

Molecule “N-{N^α,N^ε -Bis-[O-(3-O-carboxymethyl-β-L-fucosyl)-4-hydroxy-phenylamino-thiocar bonyl]-lysyl-diaminopropionyl}-batracyline, di-sodium salt [Example 6.21]” returned an IC50 of 150 µM. This IC50 is about 3-fold higher than that of the molecule before.

“N-{N^α,N^ε -Bis-[O-(3-O-methyl-β-L-fucosyl)-4-hydroxy-phenylamino-thiocarbonyl]- lysyl-diaminopropionyl}-batracyline [Example 6.20]”: the IC50 was found to be 80 µM. Compared with the last molecule, the IC50 is about 1.9-fold lower.

With “N-{N^ε -[4-Hydroxyethylamino-2-[O-(2-O-methyl-β-L-fucosyl)-4-hydroxy-phenyla mino]-triazin-6-yl]-lysyl-alanyl}-batracyline, trifluoroacetate [Example 8.11]”, 45 µM corresponded to half-maximal inhibition (IC50).

“N-{N^ε -[-(3-O-Carbamoylmethyl-β-D-galactopyranosyl)-4-hydroxy-phenylamino-t hiocarbonyl]-lysyl-D-alanyl}-batracyline, trifluoroacetate [Example 3.19]” gave an IC50 of 75 µM. Against the preceding molecule, the IC50 is about 1.7-fold higher.

In turn, “N-{N^ε -[O-(3-O-(N-Propyl-carbamoylmethyl)-β-D-galactopyranosyl)-4-hydroxy-p henylamino-thiocarbonyl]-lysyl-D-alanyl}-batracyline, trifluoroacetate [Example 3.21]” gave an IC50 of 90 µM.

“N-{N^ε -[O-(3-O-Carbamoylmethyl-α-D-mannopyranosyl)-4-hydroxy-phenylamino-t hiocarbonyl]-lysyl-D-alanyl}-batracyline, trifluoroacetate [Example 3.30]” gave an IC50 of over 250 µM.

With “N-{N^ε -[O-(3-O-Carboxymethyl-α-D-mannopyranosyl)-4-hydroxy-phenylamino-thi ocarbonyl]-lysyl-D-alanyl}-batracyline, trifluoroacetate [Example 3.29]”, the IC50 was 110 µM.

Regarding “N-{N^ε -[O-(3-O-Carboxymethyl-β-D-galactopyranosyl)-4-hydroxy-phenylamino-th iocarbonyl]-lysyl-D-alanyl}-batracyline, trifluoroacetate [Example 3.18]”, 15 µM corresponded to half-maximal inhibition (IC50).

In the case of “N-{N^ε -[O-(3-O-Methoxycarbonylmethyl-α-D-mannopyranosyl)-4-hydroxy-phenyla mino-thiocarbonyl]-lysyl-D-alanyl}-batracyline, trifluoroacetate [Example 3.28]”, the IC50 was found to be 60 µM.
